# Assay results from patent US20240246941A1, “SUBSTITUTED 4-(3-AMINOPROP-1-YL)AMINOQUINOLINE ANALOGS AS MODULATORS OF MELANOMA-ASSOCIATED ANTIGEN 11 UBIQUITIN LIGASE” (ST. JUDE CHILDREN'S RESEARCH HOSPITAL, INC., priority 2020, published 2024).
# Where a SMILES comes first, the peptide text is derived from it. [ ]: non-standard residue; d: D form. Phe(3-Me) = Cc1cccc(C[C@H](N)C(=O)O)c1
# Biological target: interaction between GST-MAGEA11 MHD and FAM-PCF11_4 peptide (MAGE-A11:PCF11) (Homo sapiens (Human), UniProt P43364)
# Sequence (P43364 218-429): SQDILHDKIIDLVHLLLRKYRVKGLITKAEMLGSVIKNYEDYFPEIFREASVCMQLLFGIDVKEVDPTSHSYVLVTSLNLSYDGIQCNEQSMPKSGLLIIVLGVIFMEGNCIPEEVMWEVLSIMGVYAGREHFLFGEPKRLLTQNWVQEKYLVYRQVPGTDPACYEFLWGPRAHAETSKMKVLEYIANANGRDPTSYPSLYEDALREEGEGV
# Test: TR-FRET dose response competition assay for disruption of MAGE-A11:PCF11 binding
# Details: Dose response TR-FRET screening of nine scaffold groups against MAGE-A11:PCF11; read-out: consensus IC50
# Method in brief: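 Competition TR-FRET at room temperature in 50 mM Tris pH 7.5, 20 mM MgCl2, 0.1 mg/ml BSA, 1 mM DTT: final 5 nM GST-MAGEA11 MHD, 5 nM Tb-anti-GST, 200 nM FAM-PCF11_4, 90 min. Ratio 520/490 nm converted to % inhibition; IC50 from sigmoidal fit.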
row,SMILES,IC50
1,Cn1c(-c2cc(Cl)ccc2O)nc2c1c(=O)[nH]c(=O)n2Cc1ccccc1 [SJ000386224-1],69.9 µM
2,CCCn1c(-c2ccc(C(=O)OC)cc2)nc2c1c(=O)[nH]c(=O)n2Cc1ccccc1 [SJ000420179-1],69.9 µM
3,COc1ccc(F)cc1CNCCCNc1ccnc2cc(Cc3c(Cl)cccc3Cl)ccc12 [SJ000311317-1],12.2 µM
4,O=C1c2ccccc2NC(c2ccc(Cl)cc2)N1Cc1ccccc1 (stereo not shown) [SJ000019547-2],69.9 µM
5,Cc1ccccc1-c1nc(S(=O)(=O)c2ccc(F)cc2)c(N2CC(C)OC(C)C2)o1 (stereo not shown) [SJ000329031-1],69.9 µM
6,CCCN1C(=O)c2ccccc2NC1c1c(Cl)cccc1Cl (stereo not shown) [SJ000295321-1],69.9 µM
7,COP(=O)(OC)c1nc(-c2ccccc2)oc1N1CCOCC1 [SJ000124835-1],69.9 µM
8,C=CCn1c(=O)c2c(nc(-c3ccccc3)n2C)n(C)c1=O [SJ000832270-1],85.8 µM
9,Cc1ccc(NC2=C(Cl)C(=O)c3ccccc3C2=O)cc1 [SJ000120750-1],69.9 µM
10,CC(C)Cn1c(-c2cc([N+](=O)[O-])ccc2Cl)nc2c1c(=O)[nH]c(=O)n2Cc1ccccc1 [SJ000390112-1],69.9 µM
11,FC(F)(F)Oc1cccc(CNCCCNc2ccnc3cc(Cl)ccc23)c1 [SJ000521022-2],69.9 µM
12,CCCN1C(=O)c2ccccc2NC1c1cccc(O)c1O (stereo not shown) [SJ000395233-1],69.9 µM
13,O=S(=O)(c1ccc(Cl)cc1)c1nc(-c2ccc(Cl)cc2)oc1N1CCOCC1 [SJ000230692-1],69.9 µM
14,COc1ccc(CN2C(=O)c3ccccc3NC2c2ccc([N+](=O)[O-])cc2)cc1 (stereo not shown) [SJ000510745-1],69.9 µM
15,CCCn1c(=O)[nH]c(=O)c2c1nc(-c1ccc(C#N)cc1)n2CCN1CCOCC1 [SJ000403937-1],69.9 µM
16,COCCn1c(-c2ccc(OC)cc2)nc2c1c(=O)[nH]c(=O)n2CC(C)C [SJ000425224-1],69.9 µM
17,COCCCn1c(-c2cc(Br)ccc2F)nc2c1c(=O)[nH]c(=O)n2Cc1ccccc1 [SJ000411586-1],69.9 µM
18,CCn1c2ccccc2c2cc(CN3CCCC(O)C3)ccc21 (stereo not shown) [SJ000550874-1],69.9 µM
19,CCCn1c(=O)[nH]c(=O)c2c1nc(-c1cccc(OC)c1)n2CCOC [SJ000427207-1],69.9 µM
20,Cc1cc(C)c(C2Nc3ccccc3C(=O)N2CCCN2CCOCC2)cc1C (stereo not shown) [SJ000803761-1],62.3 µM
21,CCCOc1ccc(-c2nc3c(=O)n(C)c(=O)n(C)c3[nH]2)cc1 [SJ000205042-1],69.9 µM
22,Cn1c2ccccc2c2cc(C(=O)NCC3CCC4(CCN(Cc5ccccn5)CC4)O3)ccc21 (stereo not shown) [SJ000308489-1],69.9 µM
23,Fc1cccc(C(F)(F)F)c1CNCCCNc1ccnc2cc(Cl)ccc12 [SJ000521031-1],69.9 µM
24,COc1ccc(CNCCCNc2ccnc3cc(Cl)ccc23)cc1 [SJ000523059-1],69.9 µM
25,CC(=O)N(C1=C(Cl)C(=O)c2ccccc2C1=O)c1ccc(Cl)cc1 [SJ000296883-2],69.9 µM
26,Clc1ccc2c(NCCCNCc3ccc4c(c3)OCO4)ccnc2c1 [SJ000523056-1],69.9 µM

row,SMILES,IC50
1,CC1CN(c2oc(-c3ccc(F)cc3)nc2C#N)CC(C)O1 (stereo not shown) [SJ000478453-1],69.9 µM
2,O=C(NCCO)c1ccc2[nH]c3ccccc3c2c1 [SJ000031065-1],69.9 µM
3,CCCn1c(-c2cccc(C(F)(F)F)c2)nc2c1c(=O)[nH]c(=O)n2Cc1ccccc1 [SJ000382289-1],69.9 µM
4,CCCCn1c(=O)[nH]c(=O)c2c1nc(-c1ccc(C)cc1)n2C [SJ000425093-1],69.9 µM
5,c1cc(CNCCCNc2ccnc3cc(C4CCCCC4)ccc23)c2c(c1)OCO2 [SJ000311264-1],23.7 µM
6,Cc1ccccc1NC1=C(N)C(=O)c2ccccc2C1=O [SJ000562551-1],72.2 µM
7,FC(F)(F)c1ccc2c(NCCCNCc3ccc4c(c3)OCO4)ccnc2c1 [SJ000361106-1],69.9 µM
8,CCCCn1c(=O)[nH]c(=O)c2c1nc(-c1ccc(OC)cc1)n2C [SJ000425260-1],69.9 µM
9,CCC(CO)NC1=C(Cl)C(=O)c2ccccc2C1=O (stereo not shown) [SJ000148678-1],69.9 µM
10,Cn1c(=O)c2nc(-c3ccc(S(=O)(=O)O)cc3)[nH]c2n(C)c1=O [SJ000287642-4],21.8 µM
11,COc1cccc(F)c1CNCCCNc1ccnc2cc(C(F)(F)F)ccc12 [SJ000521051-1],69.9 µM
12,C=CCNC(=O)NC(=O)Cn1cnc2cc(-c3ccccc3)sc2c1=O [SJ000426777-1],69.9 µM
13,CC(=O)N(C1=C(Cl)C(=O)c2ccccc2C1=O)c1ccc(Br)cc1 [SJ000299699-2],69.9 µM
14,COc1ccc(F)cc1CNCCCNc1ccnc2cc(C(F)(F)F)ccc12 [SJ000521052-1],69.9 µM
15,O=c1c2sc(-c3ccccc3)cc2nc(SCCO)n1CCN1CCOCC1 [SJ000452798-1],69.9 µM
16,CCCCn1c(=O)[nH]c(=O)c2c1nc(-c1ccc(OCCC)c(OCC)c1)n2CCOC [SJ000378946-1],69.9 µM
17,COc1ccc(F)cc1CNCCCNc1ccnc2cc(Cc3ccc(F)cc3)ccc12 [SJ000311245-1],35.1 µM
18,COc1cccc(CNCCCNc2ccnc3cc(-c4ccc(F)cc4)ccc23)c1O [SJ000311239-1],33.3 µM
19,COc1ccc(OC(F)(F)F)cc1CNCCCNc1ccnc2cc(C(F)(F)F)ccc12 [SJ000521063-1],69.9 µM
20,COc1ccc(F)cc1CNCCCNc1ccnc2cc(Oc3ccc(F)cc3)ccc12 [SJ000311225-1],69.9 µM
21,CCCn1c(-c2cccc(F)c2)nc2c1c(=O)[nH]c(=O)n2Cc1ccccc1 [SJ000382299-1],69.9 µM
22,O=C1c2ccccc2NC(c2ccc(Br)cc2)N1Cc1ccc(Cl)cc1 (stereo not shown) [SJ000508213-1],69.9 µM
23,CCCn1c(=O)c2nc(-c3ccc(S(=O)(=O)O)cc3)[nH]c2n(CCC)c1=O [SJ000287650-2],69.9 µM
24,CC(NC=O)c1ccc2c(c1)c1ccccc1n2C (stereo not shown) [SJ000461804-1],69.9 µM
25,COCCn1c(-c2ccc(SC)cc2)nc2c1c(=O)[nH]c(=O)n2CC(C)C [SJ000378917-1],69.9 µM
26,Cc1ccc(-c2nc3c(c(=O)[nH]c(=O)n3CC(C)C)n2CC(C)C)cc1[N+](=O)[O-] [SJ000379015-1],69.9 µM

# Same assay, conditions: PCF11 peptides; read-out: IC50 of PCF11 peptides binding to GST-MAGE-A11 by TR-FRET
row,SMILES,IC50
1,CC[C@H](C)[C@H](NC(=O)[C@H](CCC(N)=O)NC(=O)[C@H](Cc1c[nH]cn1)NC(=O)[C@@H](NC(=O)[C@@H](NC(=O)[C@@H](NC(=O)[C@H](CC(C)C)NC(=O)[C@@H](N)Cc1ccccc1)C(C)C)C(C)C)C(C)C)C(=O)N[C@@H](CCCNC(=N)N)C(=O)N[C@@H](CCC(N)=O)C(=O)N[C@@H](CC(C)C)C(=O)N[C@@H](Cc1cccc(C)c1)C(=O)N[C@@H](CCC(N)=O)C(=O)O [3-methyl-phenylanaline] (H-FLVVVHQIRQL[Phe(3-Me)]Q-OH; N-terminus and C-terminus assumed),0.0017 µM

# Same assay, conditions: Table 5, dose response TR-FRET screening of 59 quinoline compounds against MAGE-A11:PCF11; read-out: TR-FRET IC50
row,SMILES,IC50
1,CCCN(CCCNc1ccnc2cc(C(F)(F)F)ccc12)CC1CCCCC1 [SJ000361268-1],> 70 µM
2,C=C1C=C(C)C=C(C)C(CN(CCCNc2ccnc3cc(Cl)ccc23)Cc2ccccc2)=C1 [SJ000361169-2],> 70 µM
3,CCCN(CCCNc1ccnc2cc(Cl)ccc12)Cc1ccc(-c2ccccc2)cc1 [SJ000523039-1],> 70 µM
4,FC(F)(F)c1ccc2c(NCCCNCc3ccc[nH]3)ccnc2c1 [SJ000361105-1],33 µM
5,Fc1ccc(CN(CCCCNc2ccnc3cc(Cl)ccc23)Cc2ccccc2)cc1 [SJ000522725-1],> 70 µM
6,COc1ccc(Oc2ccc3c(NCCCNCc4ccco4)ccnc3c2)cc1 [SJ000311218-1],> 70 µM
7,CCCN(CCCNc1ccnc2cc(C(F)(F)F)ccc12)CC1CC1 [SJ000361266-1],> 70 µM
8,CN(C)c1cccc(Oc2ccc3c(NCCCNCc4ccco4)ccnc3c2)c1 [SJ000311230-1],> 70 µM
9,Cc1ccc(F)cc1CN(CCCCNc1ccnc2cc(Cl)ccc12)Cc1ccccc1 [SJ000520449-1],> 70 µM

# Same assay, conditions: Table 6, 4-aminoquinoline compounds; read-out: TR-FRET, IC50
row,SMILES,IC50
1,c1ccc(-c2ccc3c(NCCCNCc4cccc5c4OCO5)ccnc3c2)cc1 [SJ000311284-01],20.6 µM

# Same assay, conditions: Table 8, representative compounds; read-out: TR-FRET IC50
row,SMILES,IC50
1,COc1ccc(F)cc1CNCCCNc1ccnc2cc(Cc3ccc(C#N)cc3)ccc12 [SJ000311305],69.9 µM
2,FC(F)(F)Oc1cccc(CNCCCNc2ccnc3cc(C(F)(F)F)ccc23)c1 [SJ000521045],69.9 µM
3,CCc1c2c(nc3ccc(OC(=O)N4CCC(N5CCCCC5)CC4)cc13)-c1cc3c(c(=O)n1C2)COC(=O)[C@]3(O)CC [SJ000312345],> 58.7 µM
4,COc1ccc(C(F)(F)F)cc1CNCCCNc1ccnc2cc(Cl)ccc12 [SJ000521036],69.9 µM
5,COc1ccc(OC)c2c(O)c(CN3CCCCC3C)c(C)nc12 (stereo not shown) [SJ000280708],> 69.9 µM
6,Fc1ccc(Cc2ccc3c(NCCCNCc4cccc5c4OCO5)ccnc3c2)c(Cl)c1 [SJ000311324],20.6 µM
7,COc1ccc(F)cc1CNCCCNc1ccnc2cc(C(F)(F)F)ccc12 [SJ000521052],69.9 µM
8,CC(C)(C)c1ccc(Oc2ccc3c(NCCCNCc4cccc5c4OCO5)ccnc3c2)cc1 [SJ000311236],8.67 µM
9,COc1ccc(Oc2ccc3c(NCCCNCc4cc(F)ccc4OC)ccnc3c2)cc1 [SJ000311221],46.5 µM
10,c1ccc(-c2ccc3c(NCCCNCc4cccc5c4OCO5)ccnc3c2)cc1 [SJ000311284-01],22.2 µM
11,COc1ccc(F)cc1CNCCCNc1ccnc2cc(-c3ccc(C(C)(C)C)cc3)ccc12 [SJ000311289],2.04 µM
12,Clc1ccc2c(NCCCNCc3ccccc3)ccnc2c1 [SJ000361100],69.9 µM
13,COc1cccc(CNCCCNc2ccnc3cc(Cc4ccc(F)cc4)ccc23)c1O [SJ000311243],43.6 µM
14,Cc1cccc(CNCCCNc2ccnc3cc(Cl)ccc23)c1 [SJ000523066],69.9 µM
15,COc1ccc(F)cc1CNCCCNc1ccnc2cc(Oc3ccc(Cl)cc3)ccc12 [SJ000311229],19.7 µM

# Same assay, conditions: read-out: IC50 by TR-FRET for disrupting MAGE-A11:PCF11 interaction
row,SMILES,IC50
1,c1ccc(-c2ccc3c(NCCCNCc4cccc5c4OCO5)ccnc3c2)cc1 [SJ000311284-01],20.6 µM
